The source made the active and inactive calls. No cut-off for these calls is given here.
Assays:
[1] = system: von Hippel-Lindau disease tumor suppressor/Epidermal growth factor receptor (Homo sapiens), P00533+P40337 [L858R,T790M,C797S]; experiment: PROTAC activity at VHL/EGFR L858R/T790M/C797S mutant in human H1975-TM cells assessed as downregulation of EGFR phosphorylation incubated for 48 hrs by Western blot analysis; assay type: cell-based
NCI-H1975 = experiment: Antitumor activity against human NCI-H1975 cells xenografted in BALB/c mouse assessed as tumor growth inhibition at 10 mg/kg,ip once daily for 22 days relative to control; assay type: functional; details: NCI-H1975, 528 h, time 22 day, read-out: TGI
[2] = system: von Hippel-Lindau disease tumor suppressor/Epidermal growth factor receptor (Homo sapiens), P00533+P40337 [L858R,T790M,C797S]; experiment: PROTAC activity at VHL/EGFR L858R/T790M/C797S mutant in human H1975-TM cells assessed as induction of EGFR degradation at 100 nM preincubated with MG-132 for 6 hrs followed by compound treatment for 48 hrs by Western blot analysis; assay type: cell-based
[3] = Metabolic stability in monkey liver microsomes assessed as intrinsic clearance at 1 uM incubated upto 60 mins in presence of NADPH by LC-MS/MS analysis; assay type: ADME, Macaca mulatta, Microsome; details: rhesus monkey, read-out: CLH
[4] = target: von Hippel-Lindau disease tumor suppressor/Epidermal growth factor receptor (Homo sapiens, UniProt P00533+P40337, T790M/L858R); experiment: PROTAC activity at VHL/EGFR L858R/T790M mutant in human NCI-H1975 cells assessed as induction of EGFR degradation incubated for 72 hrs by Western blot analysis; assay type: cell-based
[5] = system: von Hippel-Lindau disease tumor suppressor/Epidermal growth factor receptor (Homo sapiens), P00533+P40337 [L858R,T790M]; experiment: PROTAC activity at VHL/EGFR L858R/T790M mutant in human NCI-H1975 cells assessed as maximal EGFR degradation at 0.07 to 5 uM incubated for 72 hrs by Western blot analysis relative to control; assay type: cell-based; details: dose 0.07-5 µM
[6] = Metabolic stability in rat liver microsomes assessed as elimination rate constant at 1 uM incubated upto 60 mins in presence of NADPH by LC-MS/MS analysis; assay type: ADME, Microsome
HCC827 [7] = experiment: Antitumor activity against human HCC827 cells xenografted in BALB/c mouse assessed as tumor growth inhibition at 5 mg/kg,ip once daily for 28 days relative to control; assay type: functional; details: HCC827, 672 h, time 28 day, read-out: TGI
H1975-TM = experiment: Antitumor activity against human H1975-TM cells xenografted in BALB/c mouse assessed as downregulation of AKT phosphorylation in tumor at 5 to 20 mg/kg,ip once daily for 14 days by Western blot analysis; assay type: functional, organism-based; details: dose 5-20 mg/kg, time 14.0 day
[8] = Metabolic stability in human liver microsomes assessed as half-life at 1 uM incubated upto 60 mins in presence of NADPH by LC-MS/MS analysis; assay type: ADME, Microsome
[9] = system: von Hippel-Lindau disease tumor suppressor/Epidermal growth factor receptor (Homo sapiens), P00533+P40337 [UNDEFINED MUTATION]; experiment: PROTAC activity at VHL/EGFR Del19 mutant in human HCC827 cells assessed as downregulation of ERK phosphorylation incubated for 72 hrs by Western blot analysis; assay type: cell-based
[10] = Antiproliferative activity against human H1975-TM cells harboring EGFR L858R/T790M/C797S mutant assessed as inhibition of cell growth incubated for 48 to 72 hrs by CCK-8 assay; assay type: functional, cell-based
[11] = target: Voltage-gated inwardly rectifying potassium channel KCNH2 (Homo sapiens, UniProt Q12809); experiment: Inhibition of hERG expressed in CHO cells at 0.3 to 30 uM incubated for 24 to 48 hrs by voltage clamp electrophysiology; assay type: toxicity, cell-based; details: dose lower 0.3 µM, time lower 24 hrs, dose upper 30 µM, time upper 48 hrs
Chain of Voltage-gated inwardly rectifying potassium channel KCNH2 (Q12809 whole entry): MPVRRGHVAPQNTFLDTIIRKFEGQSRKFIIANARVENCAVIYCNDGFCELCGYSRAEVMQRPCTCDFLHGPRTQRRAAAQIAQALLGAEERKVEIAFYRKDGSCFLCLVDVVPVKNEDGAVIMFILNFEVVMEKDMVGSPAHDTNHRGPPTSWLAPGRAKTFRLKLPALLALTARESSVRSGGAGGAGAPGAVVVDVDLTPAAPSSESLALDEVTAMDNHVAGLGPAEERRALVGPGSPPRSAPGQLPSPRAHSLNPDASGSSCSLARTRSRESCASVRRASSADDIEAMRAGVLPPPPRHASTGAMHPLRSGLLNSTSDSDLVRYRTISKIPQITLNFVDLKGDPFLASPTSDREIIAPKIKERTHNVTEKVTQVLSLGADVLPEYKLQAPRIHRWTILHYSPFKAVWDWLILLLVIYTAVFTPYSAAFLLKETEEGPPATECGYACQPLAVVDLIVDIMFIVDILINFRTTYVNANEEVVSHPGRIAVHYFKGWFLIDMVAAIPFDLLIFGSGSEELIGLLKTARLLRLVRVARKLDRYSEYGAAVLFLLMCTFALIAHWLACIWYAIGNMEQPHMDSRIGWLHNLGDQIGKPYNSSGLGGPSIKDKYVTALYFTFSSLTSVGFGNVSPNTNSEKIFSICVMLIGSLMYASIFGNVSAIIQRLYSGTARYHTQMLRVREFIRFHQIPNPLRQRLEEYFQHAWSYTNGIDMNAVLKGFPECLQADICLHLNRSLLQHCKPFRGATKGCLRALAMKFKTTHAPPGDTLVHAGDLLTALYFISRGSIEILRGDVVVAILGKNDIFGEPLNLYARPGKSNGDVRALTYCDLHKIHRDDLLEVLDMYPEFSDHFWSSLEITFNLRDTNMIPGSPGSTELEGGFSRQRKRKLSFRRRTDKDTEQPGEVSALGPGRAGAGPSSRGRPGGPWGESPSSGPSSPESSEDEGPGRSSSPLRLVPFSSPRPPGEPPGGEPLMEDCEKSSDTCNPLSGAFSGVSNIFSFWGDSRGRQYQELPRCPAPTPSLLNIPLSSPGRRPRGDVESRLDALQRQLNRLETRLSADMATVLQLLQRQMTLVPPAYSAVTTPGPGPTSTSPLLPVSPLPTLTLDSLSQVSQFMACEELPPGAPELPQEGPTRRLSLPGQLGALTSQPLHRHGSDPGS

[12] = system: von Hippel-Lindau disease tumor suppressor/Epidermal growth factor receptor (Homo sapiens), P00533+P40337 [L858R,T790M]; experiment: PROTAC activity at VHL/EGFR L858R/T790M mutant in human NCI-H1975 cells assessed as induction of EGFR degradation at 2 uM incubated for 8 hr by Western blot analysis; assay type: cell-based
[13] = Metabolic stability in mouse liver microsomes assessed as elimination rate constant at 1 uM incubated upto 60 mins in presence of NADPH by LC-MS/MS analysis; assay type: ADME, Microsome
[14] = Tmax in SPF ICR mouse at 2 mg/kg,iv measured upto 24 hrs by LC-MS/MS analysis; assay type: ADME, organism-based; details: in vivo
[15] = system: von Hippel-Lindau disease tumor suppressor/Epidermal growth factor receptor (Homo sapiens), P00533+P40337 [L858R,T790M,C797S]; experiment: PROTAC activity at VHL/EGFR L858R/T790M/C797S mutant in human H1975-TM cells assessed as downregulation of AKT phosphorylation incubated for 48 hrs by Western blot analysis; assay type: cell-based
HCC827 [16] = experiment: Antitumor activity against human HCC827 cells xenografted in BALB/c mouse assessed as tumor growth inhibition at 1.25 mg/kg,ip once daily for 28 days relative to control; assay type: functional; details: HCC827, 672 h, time 28 day, read-out: TGI
[17] = MRT (0 to t) in SPF ICR mouse at 5 mg/kg,ip measured upto 24 hrs by LC-MS/MS analysis; assay type: ADME, organism-based; details: in vivo
HCC827 [18] = experiment: Antiproliferative activity against human HCC827 cells harboring EGFR Del19 mutant assessed as inhibition of cell growth incubated for 48 to 72 hrs by CCK-8 assay; assay type: functional, cell-based
[19] = Metabolic stability in human liver microsomes assessed as intrinsic clearance at 1 uM incubated upto 60 mins in presence of NADPH by LC-MS/MS analysis; assay type: ADME, Microsome; details: read-out: CLH
[20] = Metabolic stability in rat liver microsomes assessed as half-life at 1 uM incubated upto 60 mins in presence of NADPH by LC-MS/MS analysis; assay type: ADME, Microsome
[21] = Metabolic stability in monkey liver microsomes assessed as half-life at 1 uM incubated upto 60 mins in presence of NADPH by LC-MS/MS analysis; assay type: ADME, Macaca mulatta, Microsome; details: rhesus monkey
[22] = Antitumor activity against human H1975-TM cells xenografted in BALB/c mouse assessed as tumor growth inhibition at 20 mg/kg,ip once daily for 14 days relative to control; assay type: functional; details: 336 h, time 14 day, read-out: TGI
A-431 = experiment: Antiproliferative activity against human A-431 cells harboring EGFR wild type assessed as inhibition of cell growth incubated for 48 to 72 hrs by CCK-8 assay; assay type: functional, cell-based
[23] = MRT (0 to infinity) in SPF ICR mouse at 5 mg/kg,ip measured upto 24 hrs by LC-MS/MS analysis; assay type: ADME, organism-based; details: in vivo
[24] = AUC (0 to infinity) in SPF ICR mouse at 5 mg/kg,ip measured upto 24 hrs by LC-MS/MS analysis; assay type: ADME, organism-based; details: in vivo
[25] = MRT (0 to t) in SPF ICR mouse at 2 mg/kg,iv measured upto 24 hrs by LC-MS/MS analysis; assay type: ADME, organism-based; details: in vivo
[26] = Cmax in SPF ICR mouse at 5 mg/kg,ip measured upto 24 hrs by LC-MS/MS analysis; assay type: ADME, organism-based; details: in vivo
[27] = Metabolic stability in human liver microsomes assessed as elimination rate constant at 1 uM incubated upto 60 mins in presence of NADPH by LC-MS/MS analysis; assay type: ADME, Microsome
[28] = system: von Hippel-Lindau disease tumor suppressor/Epidermal growth factor receptor (Homo sapiens), P00533+P40337 [UNDEFINED MUTATION]; experiment: PROTAC activity at VHL/EGFR Del19 mutant in human HCC827 cells assessed as induction of EGFR degradation at 100 nM by Western blot analysis; assay type: cell-based; details: TDE = time-dependent effect

Structure (SMILES): CCN(CC)C/C=C/C(=O)Nc1cc2c(Nc3ccc(F)c(Cl)c3)ncnc2cc1OCc1cn(CCCCCCCC(=O)N[C@H](C(=O)N2C[C@H](O)C[C@H]2C(=O)N[C@H](C)c2ccc(-c3scnc3C)cc2)C(C)(C)C)nn1
- Activity [1]: Dose-Dependent Effect
- inhibition in vivo at 10 mg/kg (NCI-H1975): 79%
- Activity [2]: inactive
- microsomal CLint at 1 µM [3]: 36.6 µL/min/mg
- DC50 [4]: 250 nM
- Emax [5]: 94%
- k el at 1 h, 1 µM [6]: 6.67e-05 s⁻¹
- inhibition in vivo at 5 mg/kg (HCC827 [7]): 88%
- Activity (H1975-TM): Active
- half-life at 1 µM [8]: 16.5 min
- Activity [9]: Dose-Dependent Effect
- IC50 [10]: 3240 nM
- inhibition (INH) [11]: Not Active
- Activity [12]: 83%
- k el at 1 h, 1 µM [13]: 0.0001 s⁻¹
- Tmax [14]: 4.8 min
- Activity [15]: Dose-Dependent Effect
- inhibition in vivo at 1.25 mg/kg (HCC827 [16]): 41%
- MRT last at 24 h [17]: 172 min
- IC50 (HCC827 [18]): 9 nM
- microsomal CLint at 1 µM [19]: 84 µL/min/mg
- half-life at 1 µM [20]: 187 min
- half-life at 1 µM [21]: 37.9 min
- inhibition in vivo at 20 mg/kg [22]: 50%
- IC50 (A-431): > 20000 nM
- MRT inf [23]: 173 min
- AUC(0-inf) [24]: 2830 ng·h/mL
- MRT last at 24 h [25]: 17.4 min
- Cmax [26]: 656 ng/mL
- k el at 1 h, 1 µM [27]: 0.0007 s⁻¹
- Activity [28]: Tde

— ChEMBL document CHEMBL5523716, “Discovery of novel EGFR-PROTACs capable of degradation of multiple EGFR-mutated proteins” (Eur J Med Chem, 2024)
